Data published in patent US20100120717A1, “KINASE INHIBITORS” (priority 2006, published 2010).

Target: Aurora B/INCENP (Homo sapiens, UniProt Q96GD4)
Test: Determination of inhibition of AIK: Aurora B/INCENP Direct Fluorescence Polarization (IMAP) assay
Type: biochemical
Details: 10 uM ATP, 0.8 nM Aurora B/INCENP, 45 min at room temperature; read-out: IC50 of Exemplified Compounds Against AIK B
Description: Detection of the reaction product is performed by addition of Progressive IMAP binding reagent (Molecular Devices). Reaction product may be determined quantitatively by FP using an Analyst HT plate reader (Molecular Devices) with an excitation wavelength at 485 nm and emission at 530 nm and using a Fluorescein 505 dichroic mirror.
The assay reaction may be initiated as follows: 2 ul of (3×) 300 nM Fl-Peptide/30 uM ATP was added to each well of the plate, followed by the addition of 2 ul of (3×) inhibitor (2 fold serial dilutions for 11 data points for each inhibitor) containing 15% DMSO. Two microliters of (3×) 2.4 nM AuroraB/INCENP solution may be added to initiate the reaction (final enzyme concentration was 0.8 nM for Aurora B/INCENP). The reaction mixture may then be incubated at room temperature for 45 min, and quenched and developed by addition of 20 ul of 1 to 400 diluted Progressive IMAP binding reagent in 1× proprietary Progressive IMAP binding buffer A. Fluorescence polarization readings of the resulting reaction mixtures may be measured after a 60-minute incubation at room temperature.
IC50 values may be calculated by non-linear curve fitting of the compound concentrations and fluorescent polarization values to the standard IC50 equation.

Sequence of Aurora B/INCENP (Q96GD4 whole entry): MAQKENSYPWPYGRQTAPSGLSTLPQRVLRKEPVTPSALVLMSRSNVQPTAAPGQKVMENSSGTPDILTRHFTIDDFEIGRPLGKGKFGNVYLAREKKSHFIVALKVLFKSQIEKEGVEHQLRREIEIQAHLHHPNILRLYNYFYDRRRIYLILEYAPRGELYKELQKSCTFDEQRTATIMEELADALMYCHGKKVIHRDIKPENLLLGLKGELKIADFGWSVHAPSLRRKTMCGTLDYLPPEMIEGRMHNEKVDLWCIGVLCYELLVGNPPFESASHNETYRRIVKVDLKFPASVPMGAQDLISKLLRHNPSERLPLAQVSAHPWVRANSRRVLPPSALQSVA
Sequence of Aurora B/INCENP (Q9NQS7 whole entry partner): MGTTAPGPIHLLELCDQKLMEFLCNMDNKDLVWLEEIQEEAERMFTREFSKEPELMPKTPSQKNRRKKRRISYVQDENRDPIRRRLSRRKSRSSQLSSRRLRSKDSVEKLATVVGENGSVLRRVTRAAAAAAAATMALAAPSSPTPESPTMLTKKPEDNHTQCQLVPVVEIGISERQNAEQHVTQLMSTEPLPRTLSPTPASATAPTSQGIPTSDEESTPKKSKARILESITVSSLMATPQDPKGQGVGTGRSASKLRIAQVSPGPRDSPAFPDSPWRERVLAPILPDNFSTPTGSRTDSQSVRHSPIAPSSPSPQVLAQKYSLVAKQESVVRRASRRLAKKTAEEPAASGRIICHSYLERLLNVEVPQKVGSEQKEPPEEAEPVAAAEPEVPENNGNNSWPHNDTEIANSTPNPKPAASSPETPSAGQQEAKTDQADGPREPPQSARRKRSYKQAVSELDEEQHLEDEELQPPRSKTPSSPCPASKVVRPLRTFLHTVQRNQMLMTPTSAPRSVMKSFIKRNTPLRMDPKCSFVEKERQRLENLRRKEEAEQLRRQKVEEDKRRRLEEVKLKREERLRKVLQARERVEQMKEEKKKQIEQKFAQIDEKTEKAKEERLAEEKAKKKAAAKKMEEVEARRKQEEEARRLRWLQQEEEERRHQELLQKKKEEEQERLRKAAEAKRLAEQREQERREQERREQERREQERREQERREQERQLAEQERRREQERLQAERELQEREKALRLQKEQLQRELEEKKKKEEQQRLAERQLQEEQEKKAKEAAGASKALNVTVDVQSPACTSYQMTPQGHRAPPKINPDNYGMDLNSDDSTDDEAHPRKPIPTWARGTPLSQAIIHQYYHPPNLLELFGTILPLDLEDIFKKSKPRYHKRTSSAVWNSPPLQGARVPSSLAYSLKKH

IC50 [nM]	Compound
≥ 11	c1ccc(-c2cccc3[nH]c4ncccc4c23)cc1 [Compound 5, 5-phenyl-9H-pyrido[2,3-b]indole]
6 to 10	CCS(=O)(=O)c1cccc(-c2ccc(C)c3[nH]c4ncc(C)cc4c23)c1 [Compound 18, 5-(3-(ethylsulfonyl)phenyl)-3,8-dimethyl-9H-pyrido[2,3-b]indole]
6 to 10	CCS(=O)(=O)c1cccc(-c2cnc(OCCCN(C)C)c3[nH]c4ncc(C)cc4c23)c1 [Compound 52, {3-[5-(3-Ethanesulfonyl-phenyl)-3-methyl-9H-dipyrido[2,3-b;4′,3′-d]pyrrol-8-yloxy]-propyl}-dimethyl-amine]
6 to 10	CCS(=O)(=O)c1cccc(-c2cc(C(=O)NCCOC)c(C)c3[nH]c4ncc(C)cc4c23)c1 [Compound 90, N-(2-(methoxy)ethyl)-5-(3-(ethylsulfonyl)phenyl)-3,8-dimethyl-9H-pyrido[2,3-b]indole-7-carboxamide]
≥ 11	CCS(=O)(=O)c1cccc(-c2cc(C(=O)NCCCN3CCN(C)CC3)c(C)c3[nH]c4ncc(C)cc4c23)c1 [Compound 95, 5-(3-(ethylsulfonyl)phenyl)-3,8-dimethyl-N-(3-(4-methylpiperazin-1-yl)propyl)-9H-pyrido[2,3-b]indole-7-carboxamide]
≥ 11	CCN1CCC(NC(=O)c2cc(-c3cccc(S(=O)(=O)CC)c3)c3c([nH]c4ncc(C)cc43)c2C)CC1 [Compound 105, N-(1-ethylpiperidin-4-yl)-5-(3-(ethylsulfonyl)phenyl)-3,8-dimethyl-9H-pyrido[2,3-b]indole-7-carboxamide]
≥ 11	Cc1cnc2[nH]c3c(C)c(C(=O)NCCN(C)C)cc(-c4cccc(NC(=O)C5CC5)c4)c3c2c1 [Compound 112, 5-(3-(cyclopropanecarboxamido)phenyl)-N-(2-(dimethylamino)ethyl)-3,8-dimethyl-9H-pyrido[2,3-b]indole-7-carboxamide]
6 to 10	CCS(=O)(=O)c1cccc(-c2cc(C(=O)NCCN(C)C)c(C)c3[nH]c4ncc(C)cc4c23)c1 [Compound 113]
≥ 11	CCS(=O)(=O)c1cccc(-c2cc(C(=O)NCC3CCN(C)CC3)c(C)c3[nH]c4ncc(C)cc4c23)c1 [Compound 114, 5-(3-(ethylsulfonyl)phenyl)-3,8-dimethyl-N-((1-methylpiperidin-4-yl)methyl)-9H-pyrido[2,3-b]indole-7-carboxamide]
≥ 11	CCS(=O)(=O)c1cccc(-c2cc(C(=O)N[C@H]3CCCN(C)C3)c(C)c3[nH]c4ncc(C)cc4c23)c1 [Compound 117, (S)-5-(3-(ethylsulfonyl)phenyl)-3,8-dimethyl-N-(1-methylpiperidin-3-yl)-9H-pyrido[2,3-b]indole-7-carboxamide]
6 to 10	Cc1cnc2[nH]c3c(C)c(C(=O)NC4CCN(C)CC4)cc(-c4cccc(NC(=O)C5CC5)c4)c3c2c1 [Compound 120, 5-(3-(cyclopropanecarboxamido)phenyl)-3,8-dimethyl-N-(1-methyl-piperidin-4-yl)-9H-pyrido[2,3-b]indole-7-carboxamide]
6 to 10	CCS(=O)(=O)c1cccc(-c2cc(C(=O)NCCN(C)C)cc3[nH]c4ncc(C)cc4c23)c1 [Compound 142, 5-(3-Ethanesulfonyl-phenyl)-3-methyl-9H-pyrido[2,3-b]indole-7-carboxylic acid (2-dimethylamino-ethyl)-amide]
≥ 11	CCNS(=O)(=O)c1cccc(-c2cc(C(=O)NC3CCN(C)CC3)c(C)c3[nH]c4ncc(C)cc4c23)c1 [Compound 153]
6 to 10	Cc1cnc2[nH]c3c(C)c(C(=O)NC4CCN(C)CC4)cc(-c4cccc(S(=O)(=O)C5CC5)c4)c3c2c1 [Compound 154, 5-(3-(cyclopropylsulfonyl)phenyl)-3,8-dimethyl-N-(1-methylpiperidin-4-yl)-9H-pyrido[2,3-b]indole-7-carboxamide]
≥ 11	COc1ccc(-c2cccc(NC(=O)C3CC3)c2)c2c1[nH]c1ncc(C)cc12 [Compound 163, N-(3-(8-methoxy-3-methyl-9H-pyrido[2,3-b]indol-5-yl)phenyl)cyclopropanecarboxamide]
6 to 10	CCOc1ccc(-c2cccc(S(=O)(=O)CC)c2)c2c1[nH]c1ncc(C)cc12 [Compound 171, 8-ethoxy-5-(3-(ethylsulfonyl)phenyl)-3-methyl-9H-pyrido[2,3-b]indole]
≥ 11	CCS(=O)(=O)c1cccc(-c2ccc(OCC(F)(F)F)c3[nH]c4ncc(C)cc4c23)c1 [Compound 173, 5-(3-(ethylsulfonyl)phenyl)-3-methyl-8-(2,2,2-trifluoroethoxy)-9H-pyrido[2,3-b]indole]
6 to 10	CCS(=O)(=O)c1cccc(-c2ccc(OCC3CCN(C)CC3)c3[nH]c4ncc(C)cc4c23)c1 [Compound 177, 5-(3-(ethylsulfonyl)phenyl)-3-methyl-8-((1-methylpiperidin-4-yl)methoxy)-9H-pyrido[2,3-b]indole]
≥ 11	Cc1cnc2[nH]c3c(OCC4CCN(C)CC4)ccc(-c4cccc(C(=O)NC5CC5)c4)c3c2c1 [Compound 178, N-cyclopropyl-3-(3-methyl-8-((1-methylpiperidin-4-yl)methoxy)-9H-pyrido[2,3-b]indol-5-yl)benzamide]
6 to 10	Cc1cnc2[nH]c3c(OCC4CCN(C)CC4)ccc(-c4cccc(S(=O)(=O)C5CC5)c4)c3c2c1 [Compound 179, 5-(3-(cyclopropylsulfonyl)phenyl)-3-methyl-8-((1-methylpiperidin-4-yl)methoxy)-9H-pyrido[2,3-b]indole]
6 to 10	Cc1cnc2[nH]c3c(OCC4CCN(C)CC4)ccc(-c4cccc(NC(=O)C5CC5)c4)c3c2c1 [Compound 182, N-(3-(3-methyl-8-((1-methylpiperidin-4-yl)methoxy)-9H-pyrido[2,3-b]indol-5-yl)phenyl)cyclopropanecarboxamide]
≥ 11	Cc1cnc2[nH]c3c(OCCCN(C)C)ccc(-c4cccc(NC(=O)C5CC5)c4)c3c2c1 [Compound 195, N-(3-(8-(3-(dimethylamino)propoxy)-3-methyl-9H-pyrido[2,3-b]indol-5-yl)phenyl)cyclopropanecarboxamide]
6 to 10	CCS(=O)(=O)c1cccc(-c2ccc(OC[C@H](O)CN(C)C)c3[nH]c4ncc(C)cc4c23)c1 [Compound 232, (R)-1-(dimethylamino)-3-(5-(3-(ethylsulfonyl)phenyl)-3-methyl-9H-pyrido[2,3-b]indol-8-yloxy)propan-2-ol]
≤ 5	CCN(CCCOc1ccc(-c2cccc(S(=O)(=O)C3CC3)c2)c2c1[nH]c1ncc(C)cc12)CCOP(=O)(OC(C)(C)C)OC(C)(C)C [Compound 271, di-tert-butyl-2-((3-(5-(3-(cyclopropylsulfonyl)phenyl)-3-methyl-9H-pyrido[2,3-b]indol-8-yloxy)propyl)(ethyl)amino)ethyl phosphate]
6 to 10	CCN(CCCOc1ccc(-c2cccc(S(=O)(=O)C3CC3)c2)c2c1[nH]c1ncc(C)cc12)CCOP(=O)(O)O [Compound 272, 2-((3-(5-(3-(cyclopropylsulfonyl)phenyl)-3-methyl-9H-pyrido[2,3-b]indol-8-yloxy)propyl)(ethyl)amino)ethyl dihydrogen phosphate]
6 to 10	CN1CCC(COc2ccc(-c3cccc(C(=O)NC4CC4)c3)c3c2[nH]c2ncc(Cl)cc23)CC1 [Compound 285, 3-(3-chloro-8-((1-methylpiperidin-4-yl)methoxy)-9H-pyrido[2,3-b]indol-5-yl)-N-cyclopropylbenzamide]
6 to 10	CN1CCC(COc2ccc(-c3cccc(S(=O)(=O)C4CC4)c3)c3c2[nH]c2ncc(Cl)cc23)CC1 [Compound 286, 3-chloro-5-(3-(cyclopropylsulfonyl)phenyl)-8-((1-methylpiperidin-4-yl)methoxy)-9H-pyrido[2,3-b]indole]
6 to 10	CCNS(=O)(=O)c1cccc(-c2ccc(OCCCN(C)C)c3[nH]c4ncc(C)cc4c23)c1 [Compound 295, 3-(8-(3-(dimethylamino)propoxy)-3-methyl-9H-pyrido[2,3-b]indol-5-yl)-N-ethylbenzenesulfonamide]

Compound	IC50 [nM]
CCS(=O)(=O)c1cccc(-c2cnc(NCCCN(C)C)c3[nH]c4ncc(C)cc4c23)c1 [Compound 41, N′-[5-(3-Ethanesulfonyl-phenyl)-3-methyl-9H-dipyrido[2,3-b;4′,3′-d]pyrrol-8-yl]-N,N-dimethyl-propane-1,3-diamine]	6 to 10
CCOc1ncc(-c2cccc(S(=O)(=O)CC)c2)c2c1[nH]c1ncc(C)cc12 [Compound 51, 5-(3-Ethanesulfonyl-phenyl)-8-ethoxy-3-methyl-9H-dipyrido[2,3-b;4′,3′-d]pyrrole]	6 to 10
CCS(=O)(=O)c1cccc(-c2cnc(OCC3CCN(C)CC3)c3[nH]c4ncc(C)cc4c23)c1 [Compound 54, 5-(3-Ethanesulfonyl-phenyl)-3-methyl-8-(1-methyl-piperidin-4-ylmethoxy)-9H-dipyrido[2,3-b;4′,3′-d]pyrrole]	6 to 10
CCS(=O)(=O)c1cccc(-c2cc(C(=O)NC3CCN(C)CC3)c(C)c3[nH]c4ncc(C)cc4c23)c1 [Compound 88, 5-(3-(ethylsulfonyl)phenyl)-3,8-dimethyl-N-(1-methylpiperidin-4-yl)-9H-pyrido[2,3-b]indole-7-carboxamide]	6 to 10
